Laboratory results: US20220324876A1, “4-SUBSTITUTED PYRANO[3,4,b]PYRAZINE KAPPA AGONISTS FOR TREATING DRUG DEPENDENCY” (The Rockefeller University, priority 2019, published 2022)
Read-outs that look alike come from different tables or passages of the source.

Biological target: T1, human kappa opioid receptors (Homo sapiens, UniProt P41145)
T1 construct: expressed in transfected cells; host or cells: U2OS
Assay: [35S]GTPγS binding, membranes from U2OS cells
Type: biochemical
Conditions: for Emax: read-out: GTPγS (% efficacy)

T1 sequence (P41145 whole entry): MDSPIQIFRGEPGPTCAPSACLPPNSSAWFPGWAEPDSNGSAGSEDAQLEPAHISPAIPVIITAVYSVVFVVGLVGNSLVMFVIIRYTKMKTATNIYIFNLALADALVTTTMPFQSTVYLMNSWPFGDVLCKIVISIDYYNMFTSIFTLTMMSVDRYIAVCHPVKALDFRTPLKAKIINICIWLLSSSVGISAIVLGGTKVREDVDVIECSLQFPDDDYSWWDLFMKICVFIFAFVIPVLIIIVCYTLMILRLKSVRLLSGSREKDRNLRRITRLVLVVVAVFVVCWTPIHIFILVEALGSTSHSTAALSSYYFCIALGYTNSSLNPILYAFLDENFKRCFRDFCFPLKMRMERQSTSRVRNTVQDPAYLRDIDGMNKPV

| SMILES | EC50 (GTPγS EC50 (nM), Table D) [nM] | Emax [%] | EC50 [nM] |
| --- | --- | --- | --- |
| COCCN1CCN(C(=O)Cc2ccc(Cl)c(Cl)c2)[C@H]2[C@H](N3CCCC3)COC[C@@H]21 (single isomer, unassigned) [Example 5A141B] | 26 | 103 |  |
| NC(=O)CN1CCN(C(=O)Cc2ccc(Cl)c(Cl)c2)[C@H]2[C@H]1COC[C@@H]2N1CCCC1 (racemic) [rac-5A102] | 37 | 96 |  |
| O=C(Cc1ccc(Cl)c(Cl)c1)N1CCN(CCO)[C@@H]2COC[C@H](N3CCCC3)[C@H]21 (single isomer, unassigned) [Example 5A74A] | 21 | 95 |  |
| O=C(Cc1ccc(Cl)c(Cl)c1)N1CCN(Cc2cn[nH]c2)[C@@H]2COC[C@H](N3CCCC3)[C@H]21 (racemic) [rac-5A107] | 3.9 | 112 |  |
| O=C(Cc1ccc(Cl)c(Cl)c1)N1CCN(CC2COC2)[C@@H]2COC[C@H](N3CCCC3)[C@H]21 (single isomer, unassigned) [Example 5A83A] | 199 | 141 |  |
| O=C(Cc1ccc(Cl)c(Cl)c1)N1CCN(Cc2cccc(F)c2)[C@H]2COC[C@@H](N3CCCC3)[C@@H]21 (single isomer, unassigned) [Example 5A145B] | 9.7 | 91 |  |
| O=C(Cc1ccc(Cl)c(Cl)c1)N1CCN(Cc2ccon2)[C@H]2COC[C@@H](N3CCCC3)[C@@H]21 [Example 5A86B] | 23 | 79 |  |
| COCCS(=O)(=O)N1CCN(C(=O)Cc2ccc(Cl)c(Cl)c2)[C@H]2[C@H]1COC[C@@H]2N1CCCC1 (single isomer, unassigned) [Example 5A146A] | 9.2 | 91 |  |
| CN(C)S(=O)(=O)N1CCN(C(=O)Cc2ccc(Cl)c(Cl)c2)[C@H]2[C@H](N3CCCC3)COC[C@@H]21 (single isomer, unassigned) [Example 5A56B] | 123 | 122 |  |
| O=C(Cc1ccc(Cl)c(Cl)c1)N1CCN(Cc2ccccn2)[C@@H]2COC[C@H](N3CCCC3)[C@H]21 (racemic) [rac-5A80] | 64 | 94 |  |
| O=C(Cc1ccc(Cl)c(Cl)c1)N1CCN(CC2CCOC2)[C@@H]2COC[C@H](N3CCCC3)[C@H]21 (stereo partly drawn) [Example 5A93] | 46 | 80 |  |
| CS(=O)(=O)CCN1CCN(C(=O)Cc2ccc(Cl)c(Cl)c2)[C@H]2[C@H]1COC[C@@H]2N1CCCC1 (racemic) [rac-5A94] | 27 | 109 |  |
| O=C(Cc1ccc(Cl)c(Cl)c1)N1CCN(S(=O)(=O)CCO)[C@H]2COC[C@@H](N3CCCC3)[C@@H]21 (single isomer, unassigned) [Example 5A140B] | 22 | 107 |  |
| O=C(Cc1ccc(Cl)c(Cl)c1)N1CCN(CC2COC2)[C@H]2COC[C@@H](N3CCCC3)[C@@H]21 (single isomer, unassigned) [Example 5A83B] | 24 | 113 |  |
| Cc1nnc(CN2CCN(C(=O)Cc3ccc(Cl)c(Cl)c3)[C@H]3[C@H]2COC[C@@H]3N2CCCC2)o1 (racemic) [rac-5A118] | 40 | 91 |  |
| CCNC(=O)CN1CCN(C(=O)Cc2ccc(Cl)c(Cl)c2)[C@H]2[C@H]1COC[C@@H]2N1CCCC1 (racemic) [rac-5A112] | 85 | 75 |  |
| O=C(Cc1ccc(Cl)c(Cl)c1)N1CCN(Cc2ncccn2)[C@@H]2COC[C@H](N3CCCC3)[C@H]21 (racemic) [rac-5A69] | 94 | 114 |  |
| O=C(Cc1ccc(Cl)c(Cl)c1)N1CCN(Cc2ccc(F)cc2)[C@H]2COC[C@@H](N3CCCC3)[C@@H]21 (single isomer, unassigned) [Example 5A136B] | 74 | 129 |  |
| O=C(Cc1ccc(Cl)c(Cl)c1)N1CCN(C(=O)C2(O)CCCC2)[C@@H]2COC[C@H](N3CCCC3)[C@H]21 (single isomer, unassigned) [Example 5A125A] | 58 | 95 |  |
| O=C(Cc1ccc(Cl)c(Cl)c1)N1CCN(CC2CCCO2)[C@H]2COC[C@@H](N3CCCC3)[C@@H]21 (single isomer, unassigned) [Example 5A138D] | 100 | 102 |  |
| O=C(Cc1ccc(Cl)c(Cl)c1)N1CCN(CCC2COC2)[C@@H]2COC[C@H](N3CCCC3)[C@H]21 (single isomer, unassigned) [Example 5A142A] | 70 | 77 |  |
| O=C(Cc1ccc(Cl)c(Cl)c1)N1CCN(C(=O)c2ccno2)[C@@H]2COC[C@H](N3CCCC3)[C@H]21 (racemic) [rac-5A121] | 17 | 86 |  |
| CC(O)CN1CCN(C(=O)Cc2ccc(Cl)c(Cl)c2)[C@H]2[C@H]1COC[C@@H]2N1CCCC1 (stereo partly drawn) [Example 5A89] | 34 | 93 |  |
| O=C(Cc1ccc(Cl)c(Cl)c1)N1CCN(C(=O)CO)[C@@H]2COC[C@H](N3CCCC3)[C@H]21 (single isomer, unassigned) [Example 5A95A] | 21 | 87 |  |

| SMILES | EC50 (GTPγS EC50 (nM), Table D) [nM] | Emax [%] | EC50 [nM] |
| --- | --- | --- | --- |
| O=C(Cc1ccc(Cl)c(Cl)c1)N1CCN(Cc2ncco2)[C@@H]2COC[C@H](N3CCCC3)[C@H]21 (racemic) [rac-5A111] | 9.8 | 146 |  |
| O=C(Cc1ccc(Cl)c(Cl)c1)N1CCN(C(=O)c2ccon2)[C@@H]2COC[C@H](N3CCCC3)[C@H]21 (racemic) [rac-5A97] | 0.8 | 88 |  |
| CN(C)S(=O)(=O)N1CCN(C(=O)Cc2ccc(Cl)c(Cl)c2)[C@H]2[C@H]1COC[C@@H]2N1CCCC1 (single isomer, unassigned) [Example 5A56A] | 11 | 77 |  |
| O=C(Cc1ccc(Cl)c(Cl)c1)N1CCN(CC2CCOCC2)[C@@H]2COC[C@H](N3CCCC3)[C@H]21 (racemic) [rac-5A84] |  | 84 | 136 |
| O=C(Cc1ccc(Cl)c(Cl)c1)N1CCN(Cc2ccn[nH]2)[C@@H]2COC[C@H](N3CCCC3)[C@H]21 (racemic) [rac-5A108] | 26 | 98 |  |
| O=C(Cc1ccc(Cl)c(Cl)c1)N1CCN(C(=O)C2(O)CCCC2)[C@H]2COC[C@@H](N3CCCC3)[C@@H]21 (single isomer, unassigned) [Example 5A125B] | 35 | 81 |  |
| O=C(Cc1ccc(Cl)c(Cl)c1)N1CCN(C(=O)C2(O)CC2)[C@@H]2COC[C@H](N3CCCC3)[C@H]21 (single isomer, unassigned) [Example 5A126A] | 16 | 98 |  |
| O=C(Cc1ccc(Cl)c(Cl)c1)N1CCN(C(=O)c2cn[nH]c2)[C@@H]2COC[C@H](N3CCCC3)[C@H]21 (racemic) [rac-5A123] | 39 | 62 |  |
| CC(F)(F)CN1CCN(C(=O)Cc2ccc(Cl)c(Cl)c2)[C@H]2[C@H]1COC[C@@H]2N1CCCC1 [Example 5A127A] | 5.3 | 110 |  |
| O=C(Cc1ccc(Cl)c(Cl)c1)N1CCN(Cc2ncon2)[C@@H]2COC[C@H](N3CCCC3)[C@H]21 (racemic) [rac-5A100] | 1.9 | 86 |  |
| O=C(Cc1ccc(Cl)c(Cl)c1)N1CCN(C(=O)C2(O)CC2)[C@H]2COC[C@@H](N3CCCC3)[C@@H]21 (single isomer, unassigned) [Example 5A126B] | 17 | 107 |  |
| O=C(Cc1ccc(Cl)c(Cl)c1)N1CCN(C(=O)c2cc[nH]n2)[C@@H]2COC[C@H](N3CCCC3)[C@H]21 (racemic) [rac-5A122] | 31 | 79 |  |
| O=C(Cc1ccc(Cl)c(Cl)c1)N1CCN(CCCO)[C@@H]2COC[C@H](N3CCCC3)[C@H]21 (racemic) [rac-5A75] | 39 | 89 |  |
| CC(F)(F)CN1CCN(C(=O)Cc2ccc(Cl)c(Cl)c2)[C@H]2[C@H](N3CCCC3)COC[C@@H]21 [Example 5A127B] | 24 | 88 |  |
| O=C(CN1CCN(C(=O)Cc2ccc(Cl)c(Cl)c2)[C@H]2[C@H]1COC[C@@H]2N1CCCC1)N1CCCC1 (racemic) [rac-5A113] | 70 | 92 |  |
| Cc1noc(CN2CCN(C(=O)Cc3ccc(Cl)c(Cl)c3)[C@H]3[C@H]2COC[C@@H]3N2CCCC2)n1 (racemic) [rac-5A105] | 19 | 82 |  |
| O=C(Cc1ccc(Cl)c(Cl)c1)N1CCN(CCO)[C@H]2COC[C@@H](N3CCCC3)[C@@H]21 (single isomer, unassigned) [Example 5A74B] | 12 | 95 |  |
| N#CCN1CCN(C(=O)Cc2ccc(Cl)c(Cl)c2)[C@H]2[C@H]1COC[C@@H]2N1CCCC1 (racemic) [rac-5A87] | 20 | 115 |  |
| O=C(O)CN1CCN(C(=O)Cc2ccc(Cl)c(Cl)c2)[C@H]2[C@H]1COC[C@@H]2N1CCCC1 (racemic) [rac-5A88] |  | 83 | 2490 |
| Cn1cc(CN2CCN(C(=O)Cc3ccc(Cl)c(Cl)c3)[C@H]3[C@H]2COC[C@@H]3N2CCCC2)cn1 (racemic) [rac-5A79] |  | 82 | 107 |
| O=C(Cc1ccc(Cl)c(Cl)c1)N1CCN(Cc2ccon2)[C@@H]2COC[C@H](N3CCCC3)[C@H]21 [Example 5A86A] | 1 | 99 |  |
| O=C(Cc1ccc(Cl)c(Cl)c1)N1CCN(Cc2ccc(F)cc2)[C@@H]2COC[C@H](N3CCCC3)[C@H]21 (single isomer, unassigned) [Example 5A136A] | 7 | 105 |  |
| O=C(Cc1ccc(Cl)c(Cl)c1)N1CCN(Cc2cccnc2)[C@@H]2COC[C@H](N3CCCC3)[C@H]21 (racemic) [rac-5A81] | 7.4 | 95 |  |
| Cn1nccc1CN1CCN(C(=O)Cc2ccc(Cl)c(Cl)c2)[C@H]2[C@H]1COC[C@@H]2N1CCCC1 (racemic) [rac-5A104] | 9 | 74 |  |
